Active and inactive are the calls of the source. The rule behind the calls is not given here.
Key:
[1] = test system: SH-SY5Y; assay: Cytotoxicity against human SH-SY5Y cells expressing human Tau P301L mutant at 0.15625 to 10 uM incubated for 24 hrs by MTT assay; format: functional, cell-based; details: dose 0.15625-10 µM
[2] = Acute toxicity in C57BL/6 mouse assessed as change in lung weight at 500 mg/kg,po observed after 14 days; format: organism-based; details: in vivo, 336 h, time 14 day
[3] = test system: Mus musculus; assay: Antialzheimer activity in okadaic acid-induced cognitive impairment C57BL/6 mouse assessed as reduction in nerve damage in hippocampal CA1 region at 10 to 30 mg/kg,po once daily for 2 weeks by Nissl staining based microscopy; format: functional, organism-based; details: dose 10-30 mg/kg
[4] = target: Dual specificity tyrosine-phosphorylation-regulated kinase 4 (Homo sapiens) (UniProt Q9NR20); assay: Inhibition of DYRK4 (unknown origin) at 1 uM preincubated with enzyme for 10 mins followed by substrate and ATP addition measured after 60 mins by ADP-Glo reagent based assay relative to control; details: time 70.0 min
[5] = target: CYP2C19 (Homo sapiens, UniProt P33261); assay: Inhibition of CYP2C19 in human liver microsomes using mephenytoin as substrate at 10 uM preincubated for 10 mins followed by NADPH addition and measured after 40 mins by LC-MS/MS analysis relative to control; format: ADME, Microsome; details: probe mephenytoin, time 50 min
[6] = Toxicity in okadaic acid-induced cognitive impairment C57BL/6 mouse assessed as change in serum AST level at 10 to 30 mg/kg,po once daily for 2 weeks; format: organism-based; details: in vivo, 336 h, dose 10-30 mg/kg
[7] = MRT (0 to infinity) in Sprague-Dawley rat at 2 mg/kg,iv measured upto 24 hrs by LC-MS/MS analysis; format: ADME, organism-based; details: in vivo
[8] = Toxicity in okadaic acid-induced cognitive impairment C57BL/6 mouse assessed as change in serum ALT level at 10 to 30 mg/kg,po once daily for 2 weeks; format: organism-based; details: in vivo, 336 h, dose 10-30 mg/kg
[9] = Toxicity in okadaic acid-induced cognitive impairment C57BL/6 mouse assessed as change in serum AKP level at 10 to 30 mg/kg,po once daily for 2 weeks; format: organism-based; details: in vivo, 336 h, dose 10-30 mg/kg
[10] = Drug concentration in Sprague-Dawley rat brain at 10 mg/kg,po measured after 1 hr by LC-MS/MS analysis; format: ADME, organism-based; details: read-out: Ct
[11] = Acute toxicity in C57BL/6 mouse assessed as histopathological change in lung at 500 mg/kg,po observed after 14 days by hematoxylin-eosin staining based analysis; format: organism-based; details: in vivo, 336 h, time 14 day
[12] = target: CYP2D6 (Homo sapiens, UniProt P10635); assay: Inhibition of CYP2D6 in human liver microsomes using dextromethorphan as substrate at 10 uM preincubated for 10 mins followed by NADPH addition and measured after 40 mins by LC-MS/MS analysis relative to control; format: ADME, Microsome; details: probe dextromethorphan, time 50 min
[13] = target: CYP2C9 (Homo sapiens, UniProt P11712); assay: Inhibition of CYP2C9 in human liver microsomes using diclofenac as substrate at 10 uM preincubated for 10 mins followed by NADPH addition and measured after 40 mins by LC-MS/MS analysis relative to control; format: ADME, Microsome; details: probe diclofenac, time 50 min
[14] = MRT (0 to t) in Sprague-Dawley rat at 10 mg/kg,po measured upto 24 hrs by LC-MS/MS analysis; format: ADME, organism-based; details: in vivo
[15] = target: Glycogen synthase kinase-3 beta (Homo sapiens, UniProt P49841); assay: Inhibition of GSK-3beta (unknown origin) preincubated with enzyme for 10 mins followed by substrate and ATP addition measured after 60 mins by ADP-Glo reagent based assay
[16] = target: Cytochrome P450 2C19 (Homo sapiens, UniProt P33261); assay: Inhibition of CYP2C19 in human liver microsomes using mephenytoin as substrate preincubated for 10 mins followed by NADPH addition and measured after 40 mins by LC-MS/MS analysis; format: ADME, Microsome
[17] = Drug concentration in Sprague-Dawley rat brain at 10 mg/kg,po measured after 2 hrs by LC-MS/MS analysis; format: ADME, organism-based; details: read-out: Ct
[18] = test system: SH-SY5Y; assay: Cytotoxicity against human SH-SY5Y cells expressing human Tau P301L mutant at 20 uM incubated for 24 hrs by MTT assay; format: functional, cell-based
[19] = test system: Mus musculus; assay: Antialzheimer activity in okadaic acid-induced cognitive impairment C57BL/6 mouse assessed as downregulation of Tau phosphorylation at Thr212 residue in hippocampus at 10 to 30 mg/kg,po once daily for 2 weeks by ELISA; format: functional, organism-based; details: dose 10-30 mg/kg
[20] = Clearance in Sprague-Dawley rat at 2 mg/kg,iv measured upto 24 hrs by LC-MS/MS analysis; format: ADME, organism-based; details: in vivo
[21] = Apparent permeability across basolateral to apical side in dog MDCK-MDR1 cells at 5 uM incubated for 90 mins by LC-MS/MS analysis; format: ADME, cell-based, Canis lupus familiaris
[22] = target: Dual specificity tyrosine-phosphorylation-regulated kinase 1B (Homo sapiens, UniProt Q9Y463); assay: Inhibition of DYRK1B (unknown origin) at 1 uM preincubated with enzyme for 10 mins followed by substrate and ATP addition measured after 60 mins by ADP-Glo reagent based assay relative to control; details: time 70.0 min
[23] = Acute toxicity in C57BL/6 mouse assessed as histopathological change in liver at 500 mg/kg,po observed after 14 days by hematoxylin-eosin staining based analysis; format: organism-based; details: in vivo, 336 h, time 14 day
[24] = Acute toxicity in C57BL/6 mouse assessed as change in liver weight at 500 mg/kg,po observed after 14 days; format: organism-based; details: in vivo, 336 h, time 14 day
[25] = test system: Mus musculus; assay: Antialzheimer activity in okadaic acid-induced cognitive impairment C57BL/6 mouse assessed as downregulation of Tau phosphorylation at Thr212 residue in temporal cortex at 10 to 30 mg/kg,po once daily for 2 weeks by ELISA; format: functional, organism-based; details: dose 10-30 mg/kg
[26] = Drug concentration in Sprague-Dawley rat plasma at 10 mg/kg,po measured after 1 hr by LC-MS/MS analysis; format: ADME, organism-based
[27] = Oral bioavailability in Sprague-Dawley rat at 10 mg/kg measured upto 24 hrs by LC-MS/MS analysis; format: ADME, organism-based; details: in vivo
[28] = Plasma protein binding in human assessed as bound fraction at 1 uM incubated for 5 hrs by LC-MS/MS analysis; format: ADME, cell-free; details: read-out: PPB (converted)
[29] = Half life in Sprague-Dawley rat at 2 mg/kg,iv measured upto 24 hrs by LC-MS/MS analysis; format: ADME, organism-based; details: in vivo
[30] = AUC (0 to t) in Sprague-Dawley rat at 2 mg/kg,iv measured upto 24 hrs by LC-MS/MS analysis; format: ADME, organism-based; details: in vivo
[31] = AUC (0 to infinity) in Sprague-Dawley rat at 10 mg/kg,po measured upto 24 hrs by LC-MS/MS analysis; format: ADME, organism-based; details: in vivo
[32] = Drug concentration in Sprague-Dawley rat plasma at 10 mg/kg,po measured after 2 hrs by LC-MS/MS analysis; format: ADME, organism-based
[33] = Acute toxicity in C57BL/6 mouse assessed as histopathological change in spleen at 500 mg/kg,po observed after 14 days by hematoxylin-eosin staining based analysis; format: organism-based; details: in vivo, 336 h, time 14 day
[34] = target: Dual specificity tyrosine-phosphorylation-regulated kinase 2 (Homo sapiens) (UniProt Q92630); assay: Inhibition of DYRK2 (unknown origin) at 1 uM preincubated with enzyme for 10 mins followed by substrate and ATP addition measured after 60 mins by ADP-Glo reagent based assay relative to control; details: time 70.0 min
Sequence of Dual specificity tyrosine-phosphorylation-regulated kinase 2 (Homo sapiens) (Q92630 whole entry): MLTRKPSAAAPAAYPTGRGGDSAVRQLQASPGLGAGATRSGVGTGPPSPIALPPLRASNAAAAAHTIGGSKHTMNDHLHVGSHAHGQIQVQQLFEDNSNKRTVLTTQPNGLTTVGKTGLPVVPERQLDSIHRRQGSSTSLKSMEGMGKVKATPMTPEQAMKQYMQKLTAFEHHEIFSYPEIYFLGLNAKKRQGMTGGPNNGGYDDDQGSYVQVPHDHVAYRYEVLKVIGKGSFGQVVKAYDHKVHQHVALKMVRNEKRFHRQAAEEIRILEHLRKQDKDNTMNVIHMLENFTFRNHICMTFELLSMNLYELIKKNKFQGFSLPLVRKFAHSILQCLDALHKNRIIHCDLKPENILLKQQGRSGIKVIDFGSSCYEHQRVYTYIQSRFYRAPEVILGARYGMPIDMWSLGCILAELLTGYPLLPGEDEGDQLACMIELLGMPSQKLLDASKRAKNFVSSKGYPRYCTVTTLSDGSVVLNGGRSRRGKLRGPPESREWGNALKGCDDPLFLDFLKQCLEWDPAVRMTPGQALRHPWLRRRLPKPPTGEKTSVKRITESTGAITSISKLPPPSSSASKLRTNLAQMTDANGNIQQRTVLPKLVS

Sequence of Cytochrome P450 2C19 (P33261 whole entry): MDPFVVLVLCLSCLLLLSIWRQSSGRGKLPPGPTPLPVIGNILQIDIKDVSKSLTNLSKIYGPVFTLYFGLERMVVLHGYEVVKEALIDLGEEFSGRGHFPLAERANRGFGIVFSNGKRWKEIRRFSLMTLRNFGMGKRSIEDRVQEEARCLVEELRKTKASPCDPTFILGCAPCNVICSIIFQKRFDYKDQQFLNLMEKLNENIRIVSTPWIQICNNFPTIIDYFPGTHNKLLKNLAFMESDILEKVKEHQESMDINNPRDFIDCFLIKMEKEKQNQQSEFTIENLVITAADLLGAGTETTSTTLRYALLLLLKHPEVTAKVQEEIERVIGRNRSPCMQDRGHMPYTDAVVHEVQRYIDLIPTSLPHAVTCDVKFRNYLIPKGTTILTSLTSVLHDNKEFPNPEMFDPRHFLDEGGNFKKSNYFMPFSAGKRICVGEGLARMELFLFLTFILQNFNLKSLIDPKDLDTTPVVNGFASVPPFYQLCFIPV
Sequence of CYP2C19 (P33261 whole entry): as above
Sequence of Dual specificity tyrosine-phosphorylation-regulated kinase 4 (Homo sapiens) (Q9NR20 whole entry): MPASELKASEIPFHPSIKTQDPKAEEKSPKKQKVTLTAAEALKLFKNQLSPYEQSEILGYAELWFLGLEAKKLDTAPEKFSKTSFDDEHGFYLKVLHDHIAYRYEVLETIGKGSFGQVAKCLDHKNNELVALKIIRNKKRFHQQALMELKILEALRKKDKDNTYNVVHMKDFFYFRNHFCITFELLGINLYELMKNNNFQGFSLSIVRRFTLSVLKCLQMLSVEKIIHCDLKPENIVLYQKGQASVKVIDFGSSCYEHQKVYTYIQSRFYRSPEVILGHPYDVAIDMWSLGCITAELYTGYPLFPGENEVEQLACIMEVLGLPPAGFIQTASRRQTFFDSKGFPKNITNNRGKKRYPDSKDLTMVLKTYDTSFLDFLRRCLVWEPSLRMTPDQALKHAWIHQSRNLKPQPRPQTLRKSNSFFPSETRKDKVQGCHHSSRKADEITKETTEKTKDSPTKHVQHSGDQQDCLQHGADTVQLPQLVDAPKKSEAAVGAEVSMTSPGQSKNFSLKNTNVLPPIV
Sequence of CYP2D6 (P10635 whole entry): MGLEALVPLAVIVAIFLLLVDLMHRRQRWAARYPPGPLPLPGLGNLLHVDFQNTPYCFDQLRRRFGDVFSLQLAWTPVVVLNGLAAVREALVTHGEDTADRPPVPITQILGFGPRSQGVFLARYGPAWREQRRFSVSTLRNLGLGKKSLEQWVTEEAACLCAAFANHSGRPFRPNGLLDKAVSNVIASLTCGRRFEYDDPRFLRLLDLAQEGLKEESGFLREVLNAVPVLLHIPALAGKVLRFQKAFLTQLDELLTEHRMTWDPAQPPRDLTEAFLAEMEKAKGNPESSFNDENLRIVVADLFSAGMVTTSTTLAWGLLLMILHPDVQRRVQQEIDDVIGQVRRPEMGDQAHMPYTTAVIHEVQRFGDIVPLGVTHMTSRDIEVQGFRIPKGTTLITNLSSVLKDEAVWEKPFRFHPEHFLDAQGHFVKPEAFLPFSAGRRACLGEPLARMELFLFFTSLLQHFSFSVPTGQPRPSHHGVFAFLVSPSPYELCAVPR
Sequence of Glycogen synthase kinase-3 beta (P49841 whole entry): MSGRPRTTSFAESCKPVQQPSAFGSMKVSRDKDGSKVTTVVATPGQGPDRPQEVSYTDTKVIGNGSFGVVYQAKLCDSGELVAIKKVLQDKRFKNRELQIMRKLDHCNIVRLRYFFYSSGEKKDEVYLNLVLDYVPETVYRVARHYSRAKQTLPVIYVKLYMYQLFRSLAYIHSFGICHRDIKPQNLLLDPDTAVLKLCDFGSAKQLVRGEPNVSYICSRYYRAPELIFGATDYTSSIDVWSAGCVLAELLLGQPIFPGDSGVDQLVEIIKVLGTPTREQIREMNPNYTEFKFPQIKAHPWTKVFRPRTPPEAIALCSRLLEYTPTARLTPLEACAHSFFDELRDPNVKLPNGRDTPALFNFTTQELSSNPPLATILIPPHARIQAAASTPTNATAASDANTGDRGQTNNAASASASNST
Sequence of Dual specificity tyrosine-phosphorylation-regulated kinase 1B (Q9Y463 whole entry, looked up): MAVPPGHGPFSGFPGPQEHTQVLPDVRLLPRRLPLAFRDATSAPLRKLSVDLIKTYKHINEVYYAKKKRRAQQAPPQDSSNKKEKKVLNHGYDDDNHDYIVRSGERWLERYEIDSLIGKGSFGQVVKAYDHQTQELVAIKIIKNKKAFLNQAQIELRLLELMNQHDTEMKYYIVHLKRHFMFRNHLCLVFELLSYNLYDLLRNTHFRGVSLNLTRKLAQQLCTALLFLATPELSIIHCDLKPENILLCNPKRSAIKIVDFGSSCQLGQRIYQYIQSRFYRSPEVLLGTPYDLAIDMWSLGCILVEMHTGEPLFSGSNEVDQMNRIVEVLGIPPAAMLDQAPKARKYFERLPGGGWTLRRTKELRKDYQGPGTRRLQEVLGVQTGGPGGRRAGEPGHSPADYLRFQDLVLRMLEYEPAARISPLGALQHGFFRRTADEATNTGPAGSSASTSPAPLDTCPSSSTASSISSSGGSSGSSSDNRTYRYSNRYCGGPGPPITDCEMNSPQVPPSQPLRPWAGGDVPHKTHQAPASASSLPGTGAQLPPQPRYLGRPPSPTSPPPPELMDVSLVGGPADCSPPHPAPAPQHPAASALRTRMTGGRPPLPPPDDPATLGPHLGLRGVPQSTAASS
Sequence of CYP2C9 (P11712 whole entry): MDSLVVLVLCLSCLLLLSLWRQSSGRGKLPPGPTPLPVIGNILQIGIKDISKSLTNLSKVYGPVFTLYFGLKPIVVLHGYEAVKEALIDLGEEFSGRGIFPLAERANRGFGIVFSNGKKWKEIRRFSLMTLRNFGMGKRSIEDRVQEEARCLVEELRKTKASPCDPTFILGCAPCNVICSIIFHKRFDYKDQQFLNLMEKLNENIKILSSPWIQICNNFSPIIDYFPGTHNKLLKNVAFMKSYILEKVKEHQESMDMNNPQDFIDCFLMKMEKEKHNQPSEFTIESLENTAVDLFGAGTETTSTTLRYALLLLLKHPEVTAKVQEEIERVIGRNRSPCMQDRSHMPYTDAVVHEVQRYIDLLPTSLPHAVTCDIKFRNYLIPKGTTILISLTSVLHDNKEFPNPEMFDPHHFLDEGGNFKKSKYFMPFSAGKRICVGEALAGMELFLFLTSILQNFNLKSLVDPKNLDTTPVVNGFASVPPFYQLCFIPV

Cc1ccc2c(-c3ccc4ncnc(N[C@H](CO)c5ccccc5)c4c3)c[nH]c2n1
Activity [1]: inactive
Activity [2]: Non-Toxic
Activity [3]: Active
inhibition [4]: 102%
inhibition at 40 min, 10 µM [5]: 96.9%
Activity [6]: Non-Toxic
MRT inf [7]: 4.49 h
Activity [8]: Non-Toxic
Activity [9]: Non-Toxic
concentration at 1 h [10]: 26.9 ng/g
Activity [11]: Non-Toxic
inhibition at 40 min, 10 µM [12]: 65.8%
inhibition at 40 min, 10 µM [13]: 96.5%
MRT last at 24 h [14]: 5.77 h
IC50 [15]: 1.42 µM
IC50 [16]: 1.03 µM
concentration at 2 h [17]: 16.8 ng/g
Activity [18]: Active
Activity [19]: Active
clearance [20]: 23.7 mL/min/kg
Papp B→A at […], 5 µM [21]: 30.6 ×10⁻⁶ cm/s
inhibition [22]: 100%
Activity [23]: Non-Toxic
Activity [24]: Non-Toxic
Activity [25]: Active
concentration at 1 h [26]: 353 ng/mL
bioavailability [27]: 39.7%
fraction unbound at 5 h, 1 µM [28]: 0.0033
half-life [29]: 2.95 h
AUC(0-t) at 24 h [30]: 1500 ng·h/mL
AUC(0-inf) [31]: 3010 ng·h/mL
concentration at 2 h [32]: 141 ng/mL
Activity [33]: Non-Toxic
inhibition [34]: 105%

From ChEMBL document CHEMBL5550204, “Discovery of ZJCK-6-46: A Potent, Selective, and Orally Available Dual-Specificity Tyrosine Phosphorylation-Regulated Kinase 1A Inhibitor for the Treatment of Alzheimer's Disease” (J Med Chem, 2024)
